Read-outs that look alike come from different tables or passages of the source.
Target: T1, Human CXCR3 (N-delta 4) (Homo sapiens, UniProt P49682)
T1 construct: CD8 leader (N); Flag tag; expressed in transfected cells; membrane preparation
T1 sequence (P49682 5-368 limits assumed): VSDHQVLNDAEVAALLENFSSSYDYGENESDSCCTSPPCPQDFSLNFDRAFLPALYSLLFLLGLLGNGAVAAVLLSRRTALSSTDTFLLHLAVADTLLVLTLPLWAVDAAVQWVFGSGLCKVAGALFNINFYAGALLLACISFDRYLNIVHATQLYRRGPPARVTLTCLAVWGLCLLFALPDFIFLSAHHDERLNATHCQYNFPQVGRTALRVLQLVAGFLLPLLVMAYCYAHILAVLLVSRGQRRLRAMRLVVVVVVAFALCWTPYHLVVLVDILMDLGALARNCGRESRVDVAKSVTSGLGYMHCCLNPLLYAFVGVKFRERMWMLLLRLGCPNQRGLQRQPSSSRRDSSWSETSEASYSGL
Assay: Human CXCR3 (N-delta 4) Scintillation Proximity Assay (SPA), [125I] IP-10 binding to Ba/F3-hCXCR3 (N-delta 4) membranes
Details: [125I] IP-10 displacement
Source text: The inventive compounds can readily be evaluated to determine activity at The CXCR3 receptors by known methods, such as, for example, Development of Human CXCR3 (N-delta 4) Binding Assay.
Cloning and Expression of Human CXCR3 (N-delta 4):
The DNA encoding human CXCR3 was cloned by PCR using human genomic DNA (Promega, Madison, Wis.) as a template. The PCR primers were designed based on the published sequence of human orphan receptor GPR9 (1) with incorporated restriction sites, a Kozak consensus sequence, CD8 leader and Flag tag. The PCR product was subcloned into the mammalian expression vector pME18Sneo, a derivative of the SR-alpha expression vector (designated as pME18Sneo-hCXCR3 (N-delta 4).
IL-3-dependent mouse pro-B cells Ba/F3 were transfected by electroporation in 0.4 ml Dulbecco's PBS containing 4×10^6 cells with 20 μg of pME18Sneo-hCXCR3 (N-delta 4) plasmid DNA. Cells were pulsed at 400 Volts, 100 OHMs, 960 μFd. The transfected cells were under selection with 1 mg/ml G418 (Life Technologies, Gaithersburg, Md.). G418-resistant Ba/F3 clones were screened for CXCR3 expression by specific binding of [^125I] IP-10 (NEN Life Science Products, Boston, Mass.).
Preparation of Ba/F3-hCXCR3 (N-delta 4) membranes:
Ba/F3 cells expressing human CXCR3 (N-delta 4) were pelleted and resuspended in the lysis buffer containing 10 mM HEPES , pH 7.5 and Complete® protease inhibitors (1 tablet per 100 ml) (Boehringer Mannheim, Indianapolis, Ind.) at a cell density of 20×10^6 cells per ml. After 5 minutes incubation on ice, cells were transferred to 4639 cell disruption bomb (Parr Instrument, Moline, Ill.) and applied with 1,500 psi of nitrogen for 30 minutes on ice. Large cellular debris was removed by centrifugation at 1,000×g. Cell membrane in the supernatant was sedimented at 100,000×g. The membrane was resuspended in the lysis buffer supplemented with 10% sucrose and stored at −80° C. Total protein concentration of the membrane was determined by BCA method from Pierce (Rockford, Ill.).
Human CXCR3 (N-delta 4) Scintillation Proximitv Assay (SPA):
For each assay point, 2 μg of membrane was preincubated for 1 hr with 300 μg wheat germ agglutinin (WGA) coated SPA beads (Amersham, Arlington Heights, Ill.) in the binding buffer (50 mM HEPES, 1 mM CaCl2, 5 mM MgCl2, 125 mM NaCI, 0.002% NaN3, 1.0% BSA) at room temperature. The beads were spun down, washed once, resuspended in the binding buffer and transferred to a 96-well Isoplate (Wallac, Gaithersburg, Md.). 25 pM of [^125I] IP-10 with tested compounds in a series of titration were added to start the reaction. After 3 hr reaction at room temperature, the amount of [^125I] IP-10 bound to the SPA beads was determined with a Wallac 1450 Microbeta counter.
The Ki values for the various example compounds of the present invention are given in the afore-mentioned Table 1. From these values, it would be apparent to the skilled artisan that the compounds of the invention have excellent utility CXCR3 antagonists.

[1] = specific Ki values (Table 2), read-out: Ki

Row | SMILES | Ki (read-out: Ki rating) [nM] | Ki [1] [nM]
1 | CC[C@H]1CN(c2c(Cl)nc(C(N)=O)c(=O)n2C)CCN1C1CCN(Cc2ccc(Cl)cc2F)CC1 [Compound Number 4] | < 25 | 8.3
2 | CC[C@H]1CN(c2c(Cl)nc(-c3nnc(N)o3)c(=O)n2C)CCN1C1CCN(Cc2cc(F)c(Cl)cc2F)CC1 [Compound Number 9] | 25 to 100 | –
3 | CC[C@H]1CN(c2c(Cl)nc(C(N)=O)c(=O)n2C)CCN1C1CCN(Cc2ccc(Cl)nc2N)CC1 [Compound Number 10] | 25 to 100 | –
4 | CCNc1nnc(-c2nc(C)c(N3CCN(C4CCN(C(=O)c5ccc(Cl)nc5N)CC4)[C@@H](CC)C3)n(C)c2=O)o1 [Compound Number 2] | < 25 | 2.6
5 | CC[C@H]1CN(c2cnc(C(N)=O)c(=O)n2C)CCN1C1CCN(Cc2ccc(Cl)nc2N)CC1 [Compound Number 12] | > 100 | –
6 | CC[C@H]1CN(c2c(Cl)nc(-c3nnc(N)o3)c(=O)n2C)CCN1C1CCN(C(=O)c2ccc(Cl)nc2N)CC1 [Compound Number 3] | < 25 | 7.5
7 | CC[C@H]1CN(c2c(C)nc(C(N)=O)c(=O)n2C)CCN1C1CCN(Cc2ccc(Cl)cc2F)CC1 [Compound Number 7] | 25 to 100 | –
8 | CC[C@H]1CN(c2c(Cl)nc(C(=O)OC)c(=O)n2C)CCN1C1CCN(Cc2ccc(Cl)cc2F)CC1 [Compound Number 8] | 25 to 100 | –

Second part, the compound after the results:

Row | Ki (read-out: Ki rating) [nM] | Ki [1] [nM] | SMILES
9 | < 25 | 1.9 | CC[C@H]1CN(c2c(Cl)nc(-c3nnc(N)o3)c(=O)n2C)CCN1C1CCN(Cc2ccc(Cl)cc2)CC1 [Compound Number 1]
10 | 25 to 100 | – | CC[C@H]1CN(c2c(Cl)nc(-c3nnc(N)o3)c(=O)n2C)CCN1C1CCN(Cc2cc(F)c(F)cc2Cl)CC1 [Compound Number 11]
11 | > 100 | – | CC[C@H]1CN(c2nc(O)c(-c3nnc(N)o3)nc2Cl)CCN1C1CCN(Cc2ccc(Cl)cc2)CC1 [Compound Number 13]
12 | 25 to 100 | – | CC[C@H]1CN(c2c(Cl)nc(-c3nnc(N)o3)c(=O)n2C)CCN1C1CCN(C(=O)c2ccc(Cl)cc2)CC1 [Compound Number 6]
13 | < 25 | 1.9 | CC[C@H]1CN(c2c(Cl)nc(-c3nnc(N)o3)c(=O)n2C)CCN1C1CCN(Cc2ccc(Cl)nc2)CC1 [Compound Number 5]
